ChEMBL document CHEMBL1140434, “1,2,4-Triazolo[1,5-a]quinoxaline as a versatile tool for the design of selective human A3 adenosine receptor antagonists: synthesis, biological evaluation, and molecular modeling studies of 2-(hetero)aryl- and 2-carboxy-substituted derivatives” (J Med Chem, 2005)

What was measured:
[1] = molecular target: Adenosine receptors; A1 & A3 (Homo sapiens) (UniProt P30542+P0DMS8); test: Selectivity for human adenosine A3 receptor over human adenosine A1 receptor; assay type: protein assay
[2] = molecular target: Adenosine receptor A2a (Homo sapiens) (UniProt P29274); test: Percentage inhibition of [3H]NECA binding to cloned human adenosine A2A receptor expressed in CHO cells at 10 uM; assay type: cell-based
[3] = molecular target: T1, Adenosine receptor A1 (Homo sapiens) (UniProt P30542); test: Percentage inhibition of [3H]CHA binding to cloned human adenosine A1 receptor expressed in CHO cells at 10 uM; assay type: cell-based
T1 sequence (whole entry): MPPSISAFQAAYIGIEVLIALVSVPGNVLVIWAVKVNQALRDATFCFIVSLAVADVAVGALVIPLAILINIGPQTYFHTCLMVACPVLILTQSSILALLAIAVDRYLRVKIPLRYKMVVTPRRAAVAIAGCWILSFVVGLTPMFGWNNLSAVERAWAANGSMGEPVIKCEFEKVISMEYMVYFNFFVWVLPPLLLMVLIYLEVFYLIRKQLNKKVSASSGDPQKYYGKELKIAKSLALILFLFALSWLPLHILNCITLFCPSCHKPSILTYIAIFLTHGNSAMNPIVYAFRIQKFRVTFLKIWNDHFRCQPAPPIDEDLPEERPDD

Adenosine receptor A1 [4] = molecular target: T2, Adenosine receptor A1 (Bos taurus, UniProt P28190); test: Displacement of [3H]CHA from adenosine A1 receptor in bovine cerebral cortical membranes; assay type: cell membranes
T2 sequence (P28190 whole entry): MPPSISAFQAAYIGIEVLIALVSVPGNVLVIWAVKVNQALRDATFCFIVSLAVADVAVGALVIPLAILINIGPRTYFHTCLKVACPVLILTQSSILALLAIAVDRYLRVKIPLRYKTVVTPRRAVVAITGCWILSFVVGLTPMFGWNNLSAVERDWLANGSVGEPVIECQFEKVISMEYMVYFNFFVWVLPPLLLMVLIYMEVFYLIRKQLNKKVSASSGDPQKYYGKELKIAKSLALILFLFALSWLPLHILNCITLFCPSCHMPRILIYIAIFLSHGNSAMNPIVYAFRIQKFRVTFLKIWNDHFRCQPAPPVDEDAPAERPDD

[5] = tested on: Adenosine receptor A2a (Bos taurus); test: Percentage inhibition of [3H]CGS 21680 binding to adenosine A2A receptor in bovine striatal membranes at 20 uM; settings: Striatum, Membrane
[6] = Selectivity for human adenosine A3 receptor over human adenosine A2A receptor
Adenosine receptor A3 = molecular target: T3, Adenosine receptor A3 (Homo sapiens, UniProt P0DMS8); test: Displacement of [125I]AB-MECA from human adenosine A3 receptor expressed in CHO cells; assay type: cell-based
T3 sequence (P0DMS8 whole entry): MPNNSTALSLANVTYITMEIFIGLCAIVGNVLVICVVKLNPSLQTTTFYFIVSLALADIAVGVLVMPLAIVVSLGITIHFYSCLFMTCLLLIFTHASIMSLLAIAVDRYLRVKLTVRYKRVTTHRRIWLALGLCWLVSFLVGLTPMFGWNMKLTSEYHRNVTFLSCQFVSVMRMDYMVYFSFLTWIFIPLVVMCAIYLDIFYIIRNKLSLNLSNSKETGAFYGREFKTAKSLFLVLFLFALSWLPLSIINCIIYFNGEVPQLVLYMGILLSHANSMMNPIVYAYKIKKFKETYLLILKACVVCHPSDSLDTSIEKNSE

[7] = molecular target: T4, Adenosine receptor A3 (Homo sapiens) (UniProt P0DMS8); test: Percentage inhibition of [125I]AB-MECA binding to human adenosine A3 receptor expressed in CHO cells at 1 uM; assay type: cell-based
T4 sequence (whole entry): T3 sequence (P0DMS8 whole entry)

[8] = molecular target: T5, Adenosine receptor A1 (Bos taurus) (UniProt P28190); test: Percentage inhibition of [3H]CHA binding to adenosine A1 receptor in bovine cerebral cortical membranes at 20 uM; assay type: cell membranes
T5 sequence (whole entry): T2 sequence (P28190 whole entry)

[9] = molecular target: Adenosine receptor A2a (Bos taurus); test: Displacement of [3H]CGS 21680 from adenosine A2A receptor in bovine striatal membranes
Adenosine receptor A1 [10] = molecular target: T6, Adenosine receptor A1 (Homo sapiens, UniProt P30542); test: Displacement of [3H]CHA from cloned human adenosine A1 receptor expressed in CHO cells; assay type: cell-based
T6 sequence (P30542 whole entry): T1 sequence (whole entry)

[11] = tested on: Adenosine receptor A2a (Bos taurus); test: Percentage inhibition of [3H]CGS 21680 binding to adenosine A2A receptor in bovine striatal membranes at 34 uM; settings: Striatum, Membrane
[12] = molecular target: T5, Adenosine receptor A1 (Bos taurus); test: Percentage inhibition of [3H]CHA binding to adenosine A1 receptor in bovine cerebral cortical membranes at 34 uM; assay type: cell membranes
[13] = molecular target: T5, Adenosine receptor A1 (Bos taurus); test: Percentage inhibition of [3H]CHA binding to adenosine A1 receptor in bovine cerebral cortical membranes at 10 uM; assay type: cell membranes

Sequence of Adenosine receptor A2a (Homo sapiens) (P29274 whole entry): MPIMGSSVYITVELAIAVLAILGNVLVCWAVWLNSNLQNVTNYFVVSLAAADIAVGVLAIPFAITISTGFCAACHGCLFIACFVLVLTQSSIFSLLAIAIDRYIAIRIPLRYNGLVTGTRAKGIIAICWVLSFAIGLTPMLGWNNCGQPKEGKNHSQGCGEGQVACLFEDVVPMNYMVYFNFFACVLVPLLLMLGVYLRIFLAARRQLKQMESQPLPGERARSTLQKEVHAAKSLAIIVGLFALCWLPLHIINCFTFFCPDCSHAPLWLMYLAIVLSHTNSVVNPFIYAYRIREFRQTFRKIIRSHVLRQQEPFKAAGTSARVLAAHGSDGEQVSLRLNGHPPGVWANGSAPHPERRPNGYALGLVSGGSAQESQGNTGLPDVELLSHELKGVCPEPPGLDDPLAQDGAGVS

Row | SMILES | Ki (Adenosine receptor A1 [4]) [nM] | inhibition [5] [%] | Ki (Adenosine receptor A3) [nM] | inhibition [8] [%] | also measured
1 | O=C(OCc1ccccc1)c1nc2c(O)nc3ccccc3n2n1 | 3220 | 47 | 51.6 |  | Ratio Ki [1]: > 200; inhibition [2]: 27%; inhibition [3]: 33%; Ratio Ki [6]: > 200
2 | Cn1c(=O)c2ncnn2c2cc(Cl)ccc21 |  | 8.9 |  | 11 | inhibition [7]: 0%
3 | CCOC(=O)c1nc2c(O)nc3ccc(N)cc3n2n1 |  | 32.7 | 25 | 64 | Ratio Ki [1]: > 400; inhibition [2]: 22%; inhibition [3]: 33%; Ratio Ki [6]: > 400
4 | CCOC(=O)c1nc2c(O)nc3ccc(C)cc3n2n1 |  | 6.5 |  | 41 | 
5 | O=c1[nH]c2ccccc2n2nc(-c3ccccc3)nc12 | 268 |  | 396 |  | 
6 | CCOC(=O)c1nc2c(=O)[nH]c3ccc(NC(C)=O)cc3n2n1 | 14200 |  | 673 |  | 
7 | CCOC(=O)c1nc2c(=O)n(C)c3ccc(Cl)cc3n2n1 |  | 0 |  | 8 | inhibition [7]: 60%
8 | CCOC(=O)c1nc2c(=O)[nH]c3cc(N)ccc3n2n1 |  |  | 354 |  | 
9 | COc1ccc(-c2nc3c(O)nc4ccccc4n3n2)cc1 |  |  |  |  | inhibition [12]: 0%; inhibition [2]: 49%; inhibition [3]: 32%
10 | CCOC(=O)c1nc2c(=O)n(O)c3ccccc3n2n1 |  |  |  |  | inhibition [12]: 6.9%; inhibition [11]: 2%; inhibition [7]: 20%
11 | Oc1nc2ccccc2n2ncnc12 |  | 20 |  | 29 | inhibition [7]: 53%
12 | CCOC(=O)c1nc2c(O)nc3cc(Cl)ccc3n2n1 |  | 15.2 | 340 | 48 | 
13 | CC(C)OC(=O)c1nc2c(O)nc3ccccc3n2n1 |  | 2.9 | 420 | 0 | 
14 | CCOC(=O)c1nc2c(O)nc3ccc([N+](=O)[O-])cc3n2n1 |  | 7.4 |  |  | inhibition [13]: 58%; inhibition [7]: 0%
15 | CCOC(=O)c1nc2c(=O)n(C(=O)OCC)c3ccccc3n2n1 |  | 4 | 28.2 | 14 | Ratio Ki [1]: > 350; inhibition [2]: 9%; inhibition [3]: 12%; Ratio Ki [6]: > 350
16 | Cn1c(=O)c2nc(-c3ccccc3)nn2c2ccccc21 | 1080 | 8.8 |  |  | inhibition [7]: 30%
17 | O=C(NCc1ccccc1)c1nc2c(=O)[nH]c3ccccc3n2n1 | 578 |  | 82 |  | Ki (Adenosine receptor A1 [10]): 205 nM
18 | CCOC(=O)c1nc2c(O)nc3cc(N)ccc3n2n1 |  | 9 |  | 43 | 
19 | CCOC(=O)c1nc2c(=O)[nH]c3ccc(Cl)cc3n2n1 |  |  | 557 |  | 
20 | O=C(NCc1ccccc1)c1nc2c(O)nc3ccccc3n2n1 |  | 27 |  |  | Ratio Ki [1]: 2.5
21 | CCOC(=O)c1nc2c(=O)n(CC)c3ccccc3n2n1 |  |  |  |  | inhibition [12]: 13.3%; inhibition [11]: 20.5%; inhibition [7]: 0%
22 | NC(=O)c1nc2c(O)nc3ccccc3n2n1 |  | 17 |  | 15 | inhibition [7]: 32%
23 | Oc1nc2ccc(Cl)cc2n2nc(-c3cccs3)nc12 |  |  |  |  | inhibition [12]: 54.2%
24 | Oc1nc2ccccc2n2nc(-c3cccs3)nc12 | 2940 |  | 2 |  | inhibition [11]: 54%; Ratio Ki [1]: 1; Ki (Adenosine receptor A1 [10]): 2 nM
25 | O=C(O)c1nc2c(O)nc3ccccc3n2n1 |  |  |  |  | inhibition [12]: 10%; inhibition [11]: 0%; inhibition [7]: 6.4%
26 | CCOC(=O)c1nc2c(O)nc3ccccc3n2n1 |  | 3.6 | 70.8 | 26 | Ratio Ki [1]: > 150; inhibition [2]: 0%; inhibition [3]: 5%; Ratio Ki [6]: > 150
27 | CCOC(=O)c1nc2c(=O)n(C)c3ccccc3n2n1 |  |  | 820 | 6.4 | 
28 | Oc1nc2ccccc2n2nc(-c3ccco3)nc12 |  |  | 33 |  | Ki (Adenosine receptor A1 [10]): 1930 nM
29 | CCOC(=O)c1nc2c(=O)[nH]c3ccc(C)cc3n2n1 |  |  | 108 |  | 

More lines, main results first:

Row | Ki (Adenosine receptor A1 [4]) [nM] | inhibition [5] [%] | Ki (Adenosine receptor A3) [nM] | inhibition [8] [%] | SMILES | also measured
30 | 5 |  |  |  | CCOC(=O)c1nc2c(N)nc3ccc(Cl)cc3n2n1 | inhibition [7]: 15%; Ki [9]: 4900 nM
31 |  | 23 |  | 0 | Oc1nc2ccc(Cl)cc2n2ncnc12 | inhibition [7]: 18.8%
32 | 3660 |  | 6 |  | Oc1nc2ccc(Cl)cc2n2nc(-c3ccco3)nc12 | Ratio Ki [1]: 457; inhibition [2]: 33%; Ki (Adenosine receptor A1 [10]): 2740 nM; Ratio Ki [6]: > 1700; Ki [9]: 5160 nM
33 | 1950 |  | 78 |  | Oc1nc2ccc(Cl)cc2n2nc(-c3ccoc3)nc12 | inhibition [11]: 25.3%; Ratio Ki [1]: 1.6; Ki (Adenosine receptor A1 [10]): 125 nM
34 | 150 |  | 2.9 |  | COc1ccc(-c2nc3c(N)nc4ccc(Cl)cc4n3n2)cc1 | inhibition [2]: 21%; Ki (Adenosine receptor A1 [10]): 36 nM
35 |  |  |  | 20 | CCOC(=O)c1nc2c(O)nc3ccc(Cl)cc3n2n1 | inhibition [11]: 7%
36 | 1000 |  | 126 |  | O=c1[nH]c2ccc(Cl)cc2n2nc(-c3ccsc3)nc12 | 
37 | 1440 |  | 2.5 |  | COc1ccc(-c2nc3c(O)nc4ccc(C)cc4n3n2)cc1 | inhibition [11]: 5%; Ratio Ki [1]: 1.1; Ki (Adenosine receptor A1 [10]): 2.86 nM
38 |  |  | 257 |  | O=c1[nH]c2ccc(Cl)cc2n2nc(-c3cccs3)nc12 | 
39 | 50 |  | 91.4 |  | Nc1nc2ccc(Cl)cc2n2nc(-c3ccccc3)nc12 | 
40 | 508 |  | 308 |  | Cc1ccc2c(c1)n1nc(-c3ccccc3)nc1c(=O)n2C | 
41 |  | 0 |  | 18 | Cn1c(=O)c2nc(-c3ccccc3)nn2c2cc(Cl)ccc21 | inhibition [7]: 19%
42 |  | 25 |  |  | Cc1ccc2nc(O)c3nc(-c4ccccc4)nn3c2c1 | 
43 | 2400 |  | 163 |  | Oc1nc2ccc(Cl)cc2n2nc(-c3ccccc3)nc12 | 
44 |  | 7 |  |  | Oc1nc2ccccc2n2nc(-c3ccccc3)nc12 | 
45 | 525 |  | 111 |  | Cc1ccc2[nH]c(=O)c3nc(-c4ccccc4)nn3c2c1 | 
46 | 1060 |  | 25.8 |  | COc1ccc(-c2nc3c(=O)[nH]c4ccc(Cl)cc4n3n2)cc1 | Ki (Adenosine receptor A1 [10]): 3.29 nM
